Laboratory results: US8993622B2, “Antiviral compounds” (Eirium AB, priority 2010, dated 2015)

Key:
[1] = test system: Ad5 binding to A549 cells; test: Binding of 35S-labelled Ad5 virions to A549 cells; assay type: cell-based, human adenovirus; settings: 15 μM
Experimental: A549 cells were washed twice and detached from the culture flask with 0.05% EDTA in PBS, resuspended in culture medium, and allowed to recover for 1 h at 37° C. The cell suspension was centrifuged at room temperature at 450 g for 5 min and resuspended in PBS containing 1% FBS and 0.01% NaN3 (PBS-FBS-NaN3); 200,000 cells per well were dispensed in a 96-well microtiter plate (Nunc). The plate was placed on ice and the compound was added to final concentrations of 5 μM and 15 μM. The final concentration of DMSO was less than 1% in all samples. Five pg […] Ad5 virions (with labeling done as described previously by Segerman et al. 2003 (Journal of Virology 77:1157-1162)) were added per cell and the plate was incubated on ice on a rocking platform for 1 h. Following incubation the cells were washed three times with PBS-FBS-NaN3, pelleted by centrifugation at 800 g for 5 min at 4° C. and resuspended in 100 μl PBS. The suspension was transferred to scintillation tubes containing 2 ml scintillation liquid (Wallac OptiPhase HiSafe 3, PerkinElmer) and cell-associated radioactivity was measured as counts per minute (cpm) using a liquid scintillation counter (Wallac 1409).

[2] = biological target: HIV integrase (Human immunodeficiency virus type 1 group M subtype B, UniProt P04585); settings: US 2006/0035245; cited from earlier work
[3] = test system: Ad37 (D); test: Quantitative real-time PCR of adenovirus DNA replication in A549 cells (Ad37); assay type: cell-based; settings: Human adenovirus sp., read-out: % inhibition of DNA replication (SD)
Experimental: (§1) Approximately 1×10^5 A549 cells were seeded in 24-well plates (Nunc) on the day before infection. On the day of infection, the cells in one well were counted to establish the amount of virions to be added. The growth medium was removed and compound and virus were added simultaneously to the cells in 700 μl DMEM with 0.75 g/l NaHCO3, 20 mM HEPES, 1×PEST, and 1% FBS. Compounds were added in concentrations ranging from 0.5 μM to 15 μM. The final concentration of DMSO was less than 1% in all samples. One pg of Ad virions was added per cell. The plate was incubated at 37° C. in 5% CO2 and 24 h after infection the cells were harvested, washed once, and resuspended in PBS. […] The design of primers and probes for analysis of various Ad types representing different adenovirus species with quantitative PCR has been described previously (Allard et al. 2001. Rapid typing of human adenoviruses by a general PCR combined with restriction endonuclease analysis. Journal Clinical Microbiology 39:498-505). Briefly, quantitative real-time PCR was carried out using a degenerate primer pair, Kadgen1 (forward)—Kadgen 2 (reverse) (5′-CWT ACA TGC ACA TCK CSG G-3′—SEQ ID NO:1, and 5′-CRC GGG CRA AYT GCA CCA G-3′—SEQ ID NO:2, respectively); DNA technology A/S, Aarhus, Denmark). […] Real-time PCR was performed in an ABI PRISM 7700 Sequence Detector (Applied Biosystems) and analyzed with Sequence Detector v1.7a software.

[4] = test system: Ad4 (E); test: Quantitative real-time PCR of adenovirus DNA replication in A549 cells (Ad4); assay type: cell-based; settings: Human adenovirus sp., read-out: % inhibition of DNA replication (SD)
Experimental: as §1

O=C(Nc1ccccc1C(=O)Nc1ccccc1C(=O)O)c1ccccc1 [Compound A02, 2-[[2-(Benzoylamino)benzoyl]amino]-benzoic acid]
effect on Ad5 binding to the surface of A549 cells [1]: no effect
inhibition of HIV integrase [2]: failed to inhibit
inhibition at 5 µM ([3]; 5 μM): 86%
inhibition at 15 µM ([3]; 15 μM): 94%
inhibition at 5 µM ([4]; 5 μM): 85%
inhibition at 15 µM ([4]; 15 μM): 96%
